“And” between values parts separate entries of the source, which are not always exact repeats. Equal entries are not always repeated. “Also recorded” adds a separate entry of the source. Where two headings read alike, the source gives them in different places.
Key:
[1] = molecular target: T1, Q58-htn 1–171 amino terminal fragment (GST-Q58-Htn cleaved by thrombin) (Homo sapiens, UniProt P42858, INS38QQQQQQQQQQQQQQQQQQQQQQQQQQQQQQQQQQQQQ); assay: in vitro aggregation of amino-terminal mutant huntingtin fragment (filter retardation dot blot); format: biochemical
T1 construct: the amino terminal fragment 1–171 of mutant huntingtin; GST (N, cleaved yes); made in house; host or cells: E. coli BL21 (pGEX-2TK vector)
Procedure: In our primary screen (Figure 1A), GST-Q58-Htn (20 μg/ml) was mixed with thrombin (0.5 unit/μg GST-Q58-Htn) and immediately dispensed into a 96-well PCR plate containing compounds diluted to a final concentration of 100 μM. Incubation was continued for 24 hours at room temperature to allow aggregate formation. The aggregation was stopped by 2% SDS/10 mM 2-mercaptoethanol followed by boiling for 5 minutes. The mixture was filtered through a cellulose acetate membrane by using a 96-well ELIFA dot blot apparatus. The aggregates retained on the membrane were detected and quantified by immunoblotting and subsequent image analysis. Congo Red, a known huntingtin aggregation inhibitor, was used as the positive control.
A recombinant pGEX-2TK expression vector with cDNA fragment encoding amino terminal 171 amino acids of human huntingtin with a polyglutamine tract of 58 was used to prepare the GST-Q58-htn fusion protein. The GST-Q58-htn was overexpressed in BL21 cells and purified by affinity chromatography over glutathione-sepharose 4B beads (Amersham Pharmacia Biotech). The purified proteins were stored at concentration of 2.0 mg/ml at -80°C.
For primary screening of the chemical library, 1 μl of 4.0 mM small compound stock, diluted from the original plates, was placed in wells of 96-well plates. The fusion protein, GST-Q58-Htn was mixed with thrombin (0.5 unit/1 μg protein) at a concentration of 20 μg/ml in a buffer of 50 mM Tris-HCl, pH 8.0, 100 mM NaCl, 2.5 mM CaCl2, 1.0 mM EDTA. The mixture was immediately distributed into the 96-well plates containing diluted compounds at 40 μl/well and mixed well. The final concentration of the small compounds was 100 μM. After 24 hours incubation at room temperature, the reaction was stopped by adding 10 μl of 10% SDS/50 mM 2-mercaptoethanol to each well followed by boiling in a PCR machine for 5 minutes. The mixture from each well was filtered through a cellulose acetate membrane ((0.2 μm, GE Osmonics labstore, Minnetonka MN) by using a 96-well ELIFA (Pierce Biotech). The aggregates retained on the membrane were detected by a specific anti-huntingtin antibody, HP1 (diluted 1:1000), followed by incubation with peroxidase conjugated anti-rabbit antibody (diluted 1:10,000, Sigma). Signals from SDS insoluble aggregates were scanned and quantified by using ImageMaster Totalab image analysis software (Amersham Pharmacia Biotech). In the secondary screening, all steps were the same except the final concentration of compound in each well was reduced to 10 μM and the GST-Q58-Htn/thrombin mixture was preincubated for 45-minutes at room temperature and clarified by centrifugation at 28,000 × g for 30 minutes before being added to the test wells. For IC50 determinations, the in vitro aggregation assay and signal quantification were performed as in the second screening but varying the final concentration of input drug. The data for each inhibitor were obtained from at least two independent experiments in which every sample was analyzed in triplicate with Prism 3.0 software (Graphpad Software, Inc., San Diego, CA).

[2] = tested on: ST111/111 striatal cells (Hdh^Q111/Q111, full-length mutant huntingtin); assay: striatal cell line assay: huntingtin localization phenotype (AP229 immunostaining, confocal); format: cell-based, mouse; conditions: for Percentage of ST111/111 cells showing cytoplasmic/nuclear huntingtin localization comparable to wild-type ST7/7 cells: 30 min at 33°C, mean ± SD of 5–10 fields; for reversal of the mutant huntingtin localization phenotype (in words): 0.5–50 μM tested
Source text: To test the hypothesis that compounds, which inhibit the aggregation-promoting property of amino-terminal mutant huntingtin will also rescue effects of full-length mutant huntingtin, we tested the top six inhibitors in a striatal cell-based assay. Mutant Hdh^Q111/Q111 and wild-type Hdh^Q7/Q7 striatal cell lines, […], which have been prepared by transformation with a tsSV40 vector, can be propagated in culture and used for cytological and biochemical comparisons. These cells express full-length mutant or wild-type huntingtin, respectively, with no evidence of truncated amino-terminal fragments, no formation of polyglutamine aggregates and no cell death-producing toxicity. However, like the striatal neurons of Hdh^Q111/Q111 knock-in mice, the ST111/111 cells show nuclear staining of huntingtin when tested with an amino-terminal huntingtin antibody that is sensitive to the conformation of the full-length protein (Figure 5A). By contrast, ST7/7 cells expressing wild type huntingtin show both nuclear and cytoplasmic immunostaining with the same huntingtin antibody (Figure 5A).
Conditionally immortalized wild-type Hdh^Q7/Q7 striatal neuronal progenitor cells (ST7/7) expressing endogenous normal huntingtin, and homozygous Hdh^Q111/Q111 striatal neuronal progenitor cells (ST111/111), expressing endogenous mutant huntingtin with 111-glutamines, have been described previously. The striatal cell lines were grown at 33°C in Dulbecco's modified Eagle's medium (DMEM) supplemented with 10 % fetal bovine serum (FBS), 1% nonessential aminoacids, 2 mM L-glutamine and 400 μg/ml G418 (Geneticin (GIBCO-BRL, Life Technologies, Gaithersburg, MD).
(§1) In the immunofluorescence and confocal analysis experiment, wild-type ST7/7 and homozygous mutant ST111/111 cells, grown to confluence on glass coverslips, were treated with 6 different drugs at four different concentrations (0.5, 5, 10 or 50 μM) for 30 min at 33°C. After the treatment the drugs were removed and the cells washed twice in PBS. The cells were then fixed by incubation in 4% formaldehyde for 15 min, permeabilized by 0.1% Triton X-100 for 5 min and incubated for 30 min with blocking solution (1% bovine albumin in PBS). Coverslips were then incubated in primary antibody (AP229 1:500 dilution) for 2 h at room temperature and washed three times in PBS before a further 1 h in blocking solution containing the secondary antibody (goat anti-rabbit Cy3, Jackson ImmunoResearch, West Grove, PA. USA). After three washes in PBS coverslips were mounted onto glass slides with Vectashield (Burlingame, CA. USA) and the images were analyzed with a laser confocal microscope (Bio-Rad, Hercules, CA. USA) using 20 × objective. Cell death was quantified by scoring the percentage of cells with apoptotic nuclear morphology, i.e. condensed or fragmented nuclei, under the confocal microscope. In each case five to ten randomly selected fields were counted, comprising at least 200 cells, and each experiment was repeated 3 times.

[3] = tested on: HEK 293T cells expressing androgen receptor with 112 glutamines; conditions: cited from earlier work
[4] = tested on: hippocampal slice cultures from the R6/2 mouse; set-up: method as in PMID 12891671; conditions: 30 μM; cited from earlier work
[5] = tested on: ST111/111 striatal cells; format: cell-based; conditions: for percentage of dead cells: mouse, 30 min
Procedure: as §1, with “After” for “In the immunofluorescence and confocal analysis experiment, wild-type ST7/7 and homozygous mutant ST111/111 cells, grown to confluence on glass coverslips, were treated with 6 different drugs at four different concentrations (0.5, 5, 10 or 50 μM) for 30 min at 33°C. After”

[6] = GST-Q58-Htn 20 μg/ml pre-incubated with thrombin, 24 h room temperature, average of at least two independent experiments, read-out: IC50 (half-maximal inhibition) of Q58-Htn aggregation

T1 sequence (P42858 with tags, fused parts or gaps with the stated changes limits assumed): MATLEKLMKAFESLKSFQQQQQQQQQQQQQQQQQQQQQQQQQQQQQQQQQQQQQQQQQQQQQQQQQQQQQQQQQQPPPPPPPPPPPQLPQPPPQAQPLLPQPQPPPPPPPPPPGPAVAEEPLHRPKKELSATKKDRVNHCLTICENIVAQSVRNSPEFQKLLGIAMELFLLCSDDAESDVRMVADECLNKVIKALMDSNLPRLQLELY

CO[C@H]1C[C@H](O[C@@H]2/C(C)=C/C[C@@H]3C[C@@H](C[C@]4(CC[C@H](C)[C@@H](C5CCCCC5)O4)O3)OC(=O)[C@@H]3C=C(C)/C(=N/O)[C@H]4OC/C(=C\C=C\[C@@H]2C)[C@]43O)O[C@@H](C)[C@@H]1O [Selamectin]
IC50 [1]: 12.4 µM

O=C1c2c(O)cccc2Cc2cccc(O)c21 [Anthralin]
Percentage of ST111/111 cells showing cytoplasmic/nuclear huntingtin localization comparable to wild-type ST7/7 cells ([2]; 0.5 μM): 4.6 ± 7.6% | Percentage of ST111/111 cells showing cytoplasmic/nuclear huntingtin localization comparable to wild-type ST7/7 cells ([2]; 5 μM): 6.6 ± 9.7% | Percentage of ST111/111 cells showing cytoplasmic/nuclear huntingtin localization comparable to wild-type ST7/7 cells ([2]; 10 μM): 9.6 ± 12.1% | Percentage of ST111/111 cells showing cytoplasmic/nuclear huntingtin localization comparable to wild-type ST7/7 cells ([2]; 50 μM): 11.8 ± 14.4% | reversal of the mutant huntingtin localization phenotype (in words) [2]: little effect; also recorded: not effective | IC50 [1, 6]: < 15 µM and 10.5 µM

Tyrothricin
effect on caspase 3 activation [3]: blocked caspase 3 activation | toxicity in the HEK 293T assay [3]: showed toxicity | IC50 [1, 6]: 14.7 µM

C=C1c2c(Cl)ccc(O)c2C(=O)C2=C(O)[C@]3(O)C(=O)C(C(N)=O)=C(O)[C@@H](N(C)C)[C@@H]3[C@@H](O)[C@H]12 [Meclocycline sulfosalicylate]
IC50 [1, 6]: 14.8 µM

CN(C)c1ccc(O)c2c1C[C@H]1C[C@H]3[C@H](N(C)C)C(O)=C(C(N)=O)C(=O)[C@@]3(O)C(O)=C1C2=O [minocycline]
effect on huntingtin exon 1 aggregation [4]: inhibitory effect | IC50 [1, 6]: 43 µM

C[n+]1cc2c3c(ccc2c2ccc4cc5c(cc4c21)OCO5)OCO3 [Sanguinarine nitrate]
Percentage of ST111/111 cells showing cytoplasmic/nuclear huntingtin localization comparable to wild-type ST7/7 cells ([2]; 0.5 μM): 0% | Percentage of ST111/111 cells showing cytoplasmic/nuclear huntingtin localization comparable to wild-type ST7/7 cells ([2]; 5 μM): 3.7 ± 5.2% | Percentage of ST111/111 cells showing cytoplasmic/nuclear huntingtin localization comparable to wild-type ST7/7 cells ([2]; 10 μM): 0% | reversal of the mutant huntingtin localization phenotype (in words) [2]: little effect | reversal of the mutant huntingtin localization phenotype (in words) ([2]; listed as sanguinarine): not effective | percentage of dead cells ([5]; 0.5 μM): 4.3% | percentage of dead cells ([5]; 5 μM): 5.5% | percentage of dead cells ([5]; 10 μM): 22.5% | effect on caspase 3 activation [3]: blocked caspase 3 activation | IC50 [1, 6]: < 6 µM and < 15 µM and 5.7 µM

N=C1C=CC(=C(c2ccc(N)cc2)c2ccc(N)cc2)C=C1 [Pararosaniline pamoate]
IC50 [1, 6]: 14.9 µM

Cc1cc2c(C(C)C)c(O)c(O)c(C=O)c2c(O)c1-c1c(C)cc2c(C(C)C)c(O)c(O)c(C=O)c2c1O [Gossypol-acetic acid]
Percentage of ST111/111 cells showing cytoplasmic/nuclear huntingtin localization comparable to wild-type ST7/7 cells ([2]; 0.5 μM): 0% | Percentage of ST111/111 cells showing cytoplasmic/nuclear huntingtin localization comparable to wild-type ST7/7 cells ([2]; 5 μM): 4.5 ± 4.3% | Percentage of ST111/111 cells showing cytoplasmic/nuclear huntingtin localization comparable to wild-type ST7/7 cells ([2]; 10 μM): 3.5 ± 3.5% | Percentage of ST111/111 cells showing cytoplasmic/nuclear huntingtin localization comparable to wild-type ST7/7 cells ([2]; 50 μM): 15.9 ± 11.1% | Percentage of ST111/111 cells showing cytoplasmic/nuclear huntingtin localization comparable to wild-type ST7/7 cells ([2]; 50 μM, listed as Gossypol acetic acid complex): 15% | reversal of the mutant huntingtin localization phenotype (in words) [2]: not effective | reversal of the mutant huntingtin localization phenotype (in words) ([2]; listed as Gossypol acetic acid complex): less effective | cell toxicity (in words) ([5]; tested up to 50 μM): no toxicity | IC50 [1]: < 6 µM and < 15 µM and 0.65 µM

Nc1c(/N=N/c2ccc(-c3ccc(/N=N/c4cc(S(=O)(=O)O)c5ccccc5c4N)cc3)cc2)cc(S(=O)(=O)O)c2ccccc12 [Congo Red]
inhibition of Q58-Htn aggregation ([1]; 10 μM, positive control): completely inhibit

CC(C)=CCC[C@]1(C)C=Cc2c(O)c3c(c(CC=C(C)C)c2O1)O[C@]12C(=C[C@@H]4C[C@H]1C(C)(C)O[C@@]2(C/C=C(/C)C(=O)O)C4=O)C3=O [Gambogic acid]
Percentage of ST111/111 cells showing cytoplasmic/nuclear huntingtin localization comparable to wild-type ST7/7 cells ([2]; 0.5 μM): 1 ± 2.6% | Percentage of ST111/111 cells showing cytoplasmic/nuclear huntingtin localization comparable to wild-type ST7/7 cells ([2]; 5 μM): 0% | reversal of the mutant huntingtin localization phenotype (in words) [2]: not effective | effect on caspase 3 activation [3]: blocked caspase 3 activation | toxicity in the HEK 293T assay [3]: showed toxicity | IC50 [1, 6]: < 6 µM and < 15 µM and 0.87 µM | residual aggregate formed ([1]; at the maximum concentration of the dose response (0.01 μM to 500 μM)): approximately 20%

O=C1C=CC(=O)c2c(O)cccc21 [Juglone]
Percentage of ST111/111 cells showing cytoplasmic/nuclear huntingtin localization comparable to wild-type ST7/7 cells ([2]; 0.5 μM): 10.4 ± 12.4% | Percentage of ST111/111 cells showing cytoplasmic/nuclear huntingtin localization comparable to wild-type ST7/7 cells ([2]; 5 μM): 37.9 ± 19.9% | Percentage of ST111/111 cells showing cytoplasmic/nuclear huntingtin localization comparable to wild-type ST7/7 cells ([2]; 10 μM): 68% and 68.8 ± 18.4% | reversal of the mutant huntingtin localization phenotype (in words) [2]: reversed the mutant phenotype in a dose-dependent manner; also recorded: effective | IC50 [1, 6]: < 6 µM and < 15 µM and 2.67 µM

Reference: publication PMC548150, “Reversal of a full-length mutant huntingtin neuronal cell phenotype by chemical inhibitors of polyglutamine-mediated aggregation” (BMC Neuroscience, 2005)
